Results as given in US20250108038A1 (priority 2023, published 2025).
Where two headings read alike, the source gives them in different places.

Tests used:
[1] = system: human 3D intestinal model (EpiIntestinal); assay: Intestinal permeability in the EpiIntestinal model; assay type: in vitro ADME; conditions: apical dose 100 μL of 10 mM stock solution, 120 min, 37° C.
Procedure: FIG. 2A. Intestinal permeability of Compound I-19. […] Samples were taken from the basolateral compartment at 0, 15, 30, 60, and 120 min. and were analyzed by LCMSMS for presence of parent compound. Values represent mean+SEM of n=3 separate experiments.
FIG. 2B. Intestinal permeability of Compound I-4 was determined in the human 3D intestinal model (Epilntestinal) from MatTek Corp. Tissues were dosed apically with 100 μL of 10 mM stock solution (4.25 μg) at 0 min. and the tissues were incubated with the test articles at 37° C. for a total of 120 min. Samples were taken from the basolateral compartment at 0, 15, 30, 60, and 120 min. and were analyzed by LCMSMS for presence of parent compound. Values represent mean+SEM of n=3 separate experiments.
Human 3D EpiIntestinal tissue model (MatTek, SMI-100, Lot #33921 Kit B) was used to model the intestine and was used for permeability studies. This model offers […] advantages over other permeability testing models such as Caco-2 cells. […]
The test articles (100 wL of 100 μM solution, or 4.25 ug) was applied to the apical surface of the EpiIntestinal model. […] Metabolic stability was determined by loss of parent compound using LCMSMS.
All data was compiled and organized in Excel. Mean, standard deviation, and standard deviation of the mean were calculated using Excel. […] The permeability coefficient (Papp) was calculated using the following equation: […]

[2] = assay type: physicochemical; conditions: for Concentration after incubation / Loss of Compound I-19 during the NSB assay / Measured dosing concentrations: 37° C.
Procedure: All conditions and stock preparation procedures were identical to the conditions applied in the transporter assays (Table 74, Table 75 and Table 76). […] A follow-up assay was carried out at 7 concentrations in order to correct the nominal concentrations for the IC50 calculations (Table 78). Where NSB was observed (>20% loss) the assay concentrations were corrected according to the result of the respective NSB assay.
All conditions and stock preparation procedures were identical to the conditions applied in the transporter assays.
Samples (1.5×C0 or Total) were immediately taken after mixing to determine the total initial concentrations. The assay mixes were pre-incubated for 15 minutes at 37° C. and at 32° C. in case of BCRP and MDR1. After the pre-incubation step the assay mixes were 1.5-times diluted with (pre-warmed) transport buffer reaching the final nominal concentrations of the compounds in the VT assay and then were further incubated at 37° C. or 32° C. for BCRP and MDR1 and sampled in the end of incubation (timc).
The aqueous buffer was mixed, and samples (C0 or Total) were immediately taken for determining the total initial concentrations. The helper plate was pre-warmed for 15 minutes at 37° C. The pre-warmed aliquots of the aqueous buffers with the test articles (50 μL) were transferred from the helper plate into the wells of another 96-well plate (assay plate) and incubated for 30 minutes (pre-incubation) then removed from the wells. Thereafter the same wells of the assay plate were dosed again with other aliquots of the aqueous buffers with the test articles and were further incubated in the assay plate at 37° C. and finally sampled (tinc).

[3] = HBSS (pH 7.4) uptake buffer, nominal 10.00 μM
[4] = HBSS (pH 7.4) uptake buffer, nominal 100.00 μM
[5] = HBSS (pH 7.4), nominal 0.412 μM, IC50 determination
[6] = HBSS (pH 7.4), nominal 1.235 μM, IC50 determination
[7] = HBSS (pH 7.4), nominal 3.704 μM, IC50 determination
[8] = HBSS (pH 7.4), nominal 11.11 μM, IC50 determination
[9] = HBSS (pH 7.4), nominal 33.33 μM, IC50 determination
[10] = HBSS (pH 7.4), nominal 100.00 μM, IC50 determination
[11] = KH (pH 8.0) uptake buffer, nominal 10.000 μM
[12] = KH (pH 8.0) uptake buffer, nominal 100.000 μM
[13] = KH (pH 8.0), nominal 0.412 μM, IC50 determination
[14] = KH (pH 8.0), nominal 1.235 μM, IC50 determination
[15] = KH (pH 8.0), nominal 3.704 μM, IC50 determination
[16] = KH (pH 8.0), nominal 11.11 μM, IC50 determination
[17] = KH (pH 8.0), nominal 33.33 μM, IC50 determination

Q: For `Clc1ccc(C2(OCC3OCCO3)c3ccccc3C3=NCCN32)cc1` (centres unmarked) [Compound I-19], which Papp [1] is on record?
A: 0.106 ×10⁻⁶ cm/s

Q: And the “Non-specific binding (NSB)” value ([2]; BCRP, BSEP and MDR1 VT inhibition assay setup)?
A: did not show any loss due to plastic binding

Q: What about the “Non-specific binding (NSB)” value ([2]; HBSS (pH 7.4) and KH (pH 8.0) uptake assay buffers) of the same compound?
A: more than 20%

Q: What about the Concentration after incubation [2, 3] of the same compound?
A: 5.98 ± 0.13 µM

Q: What about the “Loss of Compound I-19 during the NSB assay” value (“Loss” below) [2, 3] of the same compound?
A: 34%

Q: And the Measured dosing concentrations [2, 3]?
A: 8.99 ± 0.60 µM

Q: What about the Concentration after incubation [2, 4] of the same compound?
A: 59.43 ± 5.59 µM

Q: What about the “Loss” value [2, 4] of the same compound?
A: 23%

Q: And the Measured dosing concentrations [2, 4]?
A: 76.99 ± 6.62 µM

Q: What about the Concentration after incubation [2, 5] of the same compound?
A: 0.35 ± 0.03 µM

Q: And the “Loss” value [2, 5]?
A: 39%

Q: And the Measured dosing concentrations [2, 5]?
A: 0.57 ± 0.14 µM

Q: What about the Concentration after incubation [2, 6] of the same compound?
A: 0.83 ± 0.07 µM

Q: What about the “Loss” value [2, 6] of the same compound?
A: 30%

Q: And the Measured dosing concentrations [2, 6]?
A: 1.18 ± 0.09 µM

Q: And the Concentration after incubation [2, 7]?
A: 2.49 ± 0.18 µM

Q: What about the “Loss” value [2, 7] of the same compound?
A: 49%

Q: What about the Measured dosing concentrations [2, 7] of the same compound?
A: 4.84 ± 0.73 µM

Q: What about the Concentration after incubation [2, 8] of the same compound?
A: 6.86 ± 0.20 µM

Q: What about the “Loss” value [2, 8] of the same compound?
A: 29%

Q: And the Measured dosing concentrations [2, 8]?
A: 9.59 ± 1.50 µM

Q: And the Concentration after incubation [2, 9]?
A: 17.44 ± 3.56 µM

Q: What about the “Loss” value [2, 9] of the same compound?
A: 27%

Q: What about the Measured dosing concentrations [2, 9] of the same compound?
A: 23.77 ± 2.59 µM

Q: And the Concentration after incubation [2, 10]?
A: 34.49 ± 3.00 µM

Q: What about the “Loss” value [2, 10] of the same compound?
A: 12%

Q: What about the Measured dosing concentrations [2, 10] of the same compound?
A: 38.99 ± 3.97 µM

Q: And the Concentration after incubation [2, 11]?
A: 5.54 ± 0.13 µM

Q: What about the “Loss” value [2, 11] of the same compound?
A: 36%

Q: What about the Measured dosing concentrations [2, 11] of the same compound?
A: 8.68 ± 0.34 µM

Q: And the Concentration after incubation [2, 12]?
A: 20.35 ± 1.94 µM

Q: And the “Loss” value [2, 12]?
A: 33%

Q: And the Measured dosing concentrations [2, 12]?
A: 30.52 ± 1.33 µM

Q: What about the Concentration after incubation [2, 13] of the same compound?
A: 0.27 ± 0.02 µM

Q: And the “Loss” value [2, 13]?
A: 39%

Q: What about the Measured dosing concentrations [2, 13] of the same compound?
A: 0.44 ± 0.10 µM

Q: What about the Concentration after incubation [2, 14] of the same compound?
A: 0.73 ± 0.04 µM

Q: What about the “Loss” value [2, 14] of the same compound?
A: 34%

Q: And the Measured dosing concentrations [2, 14]?
A: 1.10 ± 0.10 µM

Q: And the Concentration after incubation [2, 15]?
A: 1.68 ± 0.26 µM

Q: What about the “Loss” value [2, 15] of the same compound?
A: 36%

Q: What about the Measured dosing concentrations [2, 15] of the same compound?
A: 2.63 ± 1.34 µM

Q: What about the Concentration after incubation [2, 16] of the same compound?
A: 4.05 ± 0.49 µM

Q: And the “Loss” value [2, 16]?
A: 45%

Q: And the Measured dosing concentrations [2, 16]?
A: 7.32 ± 3.86 µM

Q: What about the Concentration after incubation [2, 17] of the same compound?
A: 12.58 ± 1.30 µM

Q: And the “Loss” value [2, 17]?
A: 39%
